Test results published in patent US11166931B2, “Induction of arteriogenesis with an NO (nitric oxide) donor” (G. Pohl-Boskamp GmbH & Co. KG, priority 2012, dated 2021).
Entries after “also recorded” stand apart in the source; their conditions may differ.

Experiments:
Sprague-Dawley rats [1] = experiment: Infarct size by TTC staining after final permanent occlusion; type: in vivo, rat
Sprague-Dawley rats [2] = experiment: Ventricular arrhythmias during FPO, Lown classification and VPB score; conditions: rat, in vivo
Sprague-Dawley rats [3] = experiment: ST segment elevation (ECG) during final permanent LAD occlusion (FPO), rat repetitive ischemia protocol (RIP) arteriogenesis model; type: in vivo
arteriogenesis = conditions: nitroglycerin: administered continuously; cited from earlier work

Which “Infarct size (percentage of the area of the left ventricle)” value (Sprague-Dawley rats [1]; rat, in vivo) does the source give for `CC(=O)Oc1ccccc1C(=O)O` [ASA+NTG-PLACEBO] here?
Its value is 13.92 ±1.71%.

What about the VPB-Score (Sprague-Dawley rats [2]) of the same compound?
The VPB-Score was 5.50.

What about the “rats with class IIIa arrhythmias (Lown) during FPO” value (Sprague-Dawley rats [2]) of the same compound?
Its value is 16.7%.

And the “rats with class IVb arrhythmias (Lown) during FPO” value (Sprague-Dawley rats [2])?
The value was 83.3%.

With `CC(=O)Oc1ccccc1C(=O)O` [ASA, acetyl salicylic acid] as the compound, how does the “infarct size / infarct volume compared to other groups (in words)” value (Sprague-Dawley rats [1]; 5 DAYS RIP) read?
Its value is “increase of infarct volumes”.

And the “ST elevation / ECG parameters during FPO compared to controls (in words)” value (Sprague-Dawley rats [3]; 5 DAYS RIP)?
Its value is “impairment of ECG parameters”.

What about the “effect on arteriogenesis described in the art (in words)” value (arteriogenesis) of the same compound?
Its value is “inhibitor of arteriogenesis”.

With `O=[N+]([O-])O[C@H]1CO[C@H]2[C@@H]1OC[C@H]2O[N+](=O)[O-]` [ISDN, isosorbide dinitrate] as the compound, how does the “infarct size / infarct volume compared to other groups (in words)” value (Sprague-Dawley rats [1]; rat, in vivo) read?
Its value is “reduced infarct volumes”.

What about the “ST elevation / ECG parameters during FPO compared to controls (in words)” value (Sprague-Dawley rats [3]; rat, in vivo) of the same compound?
The value was “non-significantly decreased; also recorded: decreases in ST elevation”.

And the “arrhythmias during FPO compared to controls (in words)” value (Sprague-Dawley rats [2])?
Its value is “less arrhythmias”.

What does the source list for `O=[N+]([O-])OCC(CO[N+](=O)[O-])O[N+](=O)[O-]` [NTG, nitroglycerin]?
infarct volume decreased compared to the control group (Sprague-Dawley rats [1]; rat, in vivo): more than 50%; ST elevation / ECG parameters during FPO compared to controls (in words) (Sprague-Dawley rats [3]; rat, in vivo): significantly attenuated ST elevation; arrhythmias during FPO compared to controls (in words) (Sprague-Dawley rats [2]): decreased serious arrhythmias; effect on arteriogenesis described in the art (in words) (arteriogenesis): not able to induce angiogenesis (neovascularisation) or arteriogenesis
